According to US12344610B2, “APOL1 inhibitors and methods of use” (Maze Therapeutics, Inc., priority 2022, dated 2025):
pEC50: −log10 of the molar value.

Columns and labels:
[1] = test system: HEK293 cells overexpressing APOL1 G2; test: APOL1 G2 HEK293 cell rescue assay (reversal of cell death caused by overexpression of APOL1); type: cell-based; conditions: Homo sapiens, HEK293, HEK293 overexpressing APOL1 G2; geometric mean of at least 2 assay runs; † = single assay run
In short: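 Each compound tested in duplicate wells on one plate per run, with values usually the geometric mean across at least two runs on different days, occasionally from one run only. Read-out: concentration giving half-maximal rescue of APOL1 G2 overexpression-induced death of HEK293 cells.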

[2] = test system: Trypanosoma brucei Lister 427 VSG221 with APOL1 G0 recombinant protein; test: APOL1 G0 trypanosome cell rescue assay (Example B5); type: cell-based; conditions: Trypanosoma brucei, 20 h, read-out: APOL1 G0 Trypanosome Rescue EC50, Trypanosoma brucei Lister 427 VSG221 with APOL1 G0 recombinant protein, 20 hours, CellTiter-Glo; geometric mean of at least 2 assay runs; † = single assay run
In short: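 Luminescent ATP read-out (CellTiter-Glo) of trypanosome viability after 20 h at 37° C. Bloodstream T. brucei Lister 427 VSG221, 250/well in modified HMI-9, were exposed to recombinant mature APOL1 (aa 28-398) from a 2 μg/mL addition, plus compound in 11-point 2-fold series.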

## O=C1Nc2ccc(Cl)cc2C12CCN(CCOc1cnc3c(N4CC(O)C4)nccc3c1)CC2 [Compound 314, 5-chloro-1′-(2-{[8-(3-hydroxyazetidin-1-yl)-1,7-naphthyridin-3-yl]oxy}ethyl)-1,2-dihydrospiro[indole-3,4′-piperidin]-2-one]
[1]
  pEC50: 7.61
[2]
  pEC50: 7.60
